From ChEMBL document CHEMBL1129740, “Structure-activity relationships of a series of substituted benzamides: potent D2/5-HT2 antagonists and 5-HT1a agonists as neuroleptic agents” (J Med Chem, 1996)

How the values were obtained:
[1] = target: Serotonin 2 (5-HT2) receptor (Rattus norvegicus, UniProt P30994+P08909+P14842); test: In vitro inhibitory activity against [3H]ketanserin binding to 5-hydroxytryptamine 2 receptor; assay type: protein assay
Mus musculus [2] = test: In vivo effective dose required to antagonize the apomorphine induced climbing response in mice administered intraperitoneally.; assay type: functional; details: ip
[3] = target: T1, 5-hydroxytryptamine receptor 1A (Rattus norvegicus, UniProt P19327); test: In vitro inhibitory activity against [3H]8-OH-DPAT binding to 5-hydroxytryptamine 1A receptor
T1 sequence (P19327 whole entry): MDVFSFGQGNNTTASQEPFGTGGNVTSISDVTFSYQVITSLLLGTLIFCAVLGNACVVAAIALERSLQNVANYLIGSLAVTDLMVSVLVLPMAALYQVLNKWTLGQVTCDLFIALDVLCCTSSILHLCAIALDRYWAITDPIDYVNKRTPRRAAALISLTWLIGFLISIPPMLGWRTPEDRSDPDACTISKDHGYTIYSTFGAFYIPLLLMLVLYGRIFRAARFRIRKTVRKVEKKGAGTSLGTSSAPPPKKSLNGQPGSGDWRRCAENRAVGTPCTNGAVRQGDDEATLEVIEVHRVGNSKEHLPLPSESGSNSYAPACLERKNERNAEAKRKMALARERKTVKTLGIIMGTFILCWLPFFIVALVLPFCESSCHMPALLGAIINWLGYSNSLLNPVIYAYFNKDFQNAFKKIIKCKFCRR

Mus musculus [4] = test: In vivo effective dose to antagonize the apomorphine induced climbing response in mice administered intraperitoneally.; assay type: functional; details: ip
Mus musculus [5] = test: In vivo effective dose to antagonize the apomorphine induced climbing response in stereotypy mouse administered perorally; assay type: functional; details: po
Mus musculus [6] = test: In vivo effective dose required to antagonize the apomorphine induced climbing response in mice administered perorally; assay type: functional; details: po
Mus musculus [7] = test: In vivo effective dose to antagonize the apomorphine induced climbing response in stereotype mouse administered intraperitoneally; assay type: functional; details: ip
Mus musculus [8] = test: In vivo effective dose to induce catalepsy in mouse administered perorally.; assay type: functional; details: po

Structure (SMILES) | IC50 [1] [nM] | ED50 (Mus musculus [2]) [mg/kg] | IC50 [3] [nM] | ED50 (Mus musculus [4]) [mg/kg] | ED50 (Mus musculus [5]) [mg/kg] | ED50 (Mus musculus [6]) [mg/kg] | ED50 (Mus musculus [7]) [mg/kg] | ED50 (Mus musculus [8]) [mg/kg]
CC(C)(C)OC(=O)Nc1cccc(C(=O)NCCCCN2CCN(c3nsc4ccccc34)CC2)c1.Cl | 1.3 | > 25 | 12 | – | – | – | – | –
Cc1cccc(N)c1C(=O)NCCCCN1CCN(c2nsc3ccccc23)CC1.Cl | 8.9 | > 25 | 64 | – | – | – | – | –
Cl.[N-]=[N+]=Nc1ccccc1C(=O)NCCCCN1CCN(c2nsc3ccccc23)CC1 | 1.8 | – | 3.7 | 25 | – | – | – | –
Cl.Nc1cccc(Cl)c1C(=O)NCCCCN1CCN(c2nsc3ccccc23)CC1 | 3.4 | > 25 | – | – | – | – | – | –
Cl.Nc1ccc([N+](=O)[O-])cc1C(=O)NCCCCN1CCN(c2nsc3ccccc23)CC1 | 3.8 | 19.6 | 20 | – | – | – | – | –
CNc1ccccc1C(=O)NCCCCN1CCN(c2nsc3ccccc23)CC1.Cl | 12 | 5.8 | 10 | – | 65 | 15.6 | 13.5 | 80.6
Cl.Nc1c(F)cccc1C(=O)NCCCCN1CCN(c2nsc3ccccc23)CC1 | 0.5 | 0.9 | 1.5 | – | 46.7 | 14.3 | 8.9 | 55.5
COc1ccc(Br)c(O)c1C(=O)NCCCCN1CCN(c2nsc3ccccc23)CC1.Cl | 15 | 1.5 | 26 | – | 87.5 | 14.3 | 15.4 | 123
COc1ccc(C(=O)NCCCCN2CCN(c3nsc4ccccc34)CC2)cc1.Cl | 2.3 | 2.4 | 9 | – | – | > 25 | – | –
CCc1cc(Cl)c(OC)c(C(=O)NCCCCN2CCN(c3nsc4ccccc34)CC2)c1O.Cl | 6.8 | > 25 | 69 | – | – | – | – | –
Cl.O=C(NCCCCN1CCN(c2nsc3ccccc23)CC1)c1ccc(C(F)(F)F)cc1 | 1.5 | 12.5 | 9.1 | – | – | > 25 | – | –
CN(CCCCN1CCN(c2nsc3ccccc23)CC1)C(=O)c1ccccc1N.Cl | 2.3 | > 12 | 1.2 | – | – | – | – | –
CC(C)[C@H](Nc1ccccc1C(=O)NCCCCN1CCN(c2nsc3ccccc23)CC1)C(=O)O.Cl | 2.7 | – | 5.4 | – | 59.9 | 17.9 | 26.9 | 44.5
Cl.Nc1cccc(C(=O)NCCCCN2CCN(c3nsc4ccccc34)CC2)c1 | 2.6 | – | 6.6 | – | – | – | – | –
Cl.O=C(NCCCCN1CCN(c2nsc3ccccc23)CC1)c1ccc(/N=N/c2ccccc2)cc1 | 26 | > 25 | 540 | – | – | – | – | –
CC(C)(C)OC(=O)Nc1ccc(C(=O)NCCCCN2CCN(c3nsc4ccccc34)CC2)cc1.Cl | 0.23 | > 25 | 0.7 | – | – | – | – | –
Cc1cccc(C(=O)NCCCCN2CCN(c3nsc4ccccc34)CC2)c1N.Cl | 5.8 | 5.4 | – | – | – | 37.6 | – | –
Cl.Nc1ccc(F)cc1C(=O)NCCCCN1CCN(c2nsc3ccccc23)CC1 | 2.3 | 2.2 | – | – | – | 31.8 | – | –
CC(=O)Nc1ccc(C(=O)NCCCCN2CCN(c3nsc4ccccc34)CC2)cc1.Cl | 51 | > 25 | – | – | – | > 25 | – | –
CC(C)[C@@H](Nc1ccccc1C(=O)NCCCCN1CCN(c2nsc3ccccc23)CC1)C(=O)O.Cl | 1.6 | > 25 | 8.6 | – | – | – | – | –
Cl.Nc1cc(C(F)(F)F)ccc1C(=O)NCCCCN1CCN(c2nsc3ccccc23)CC1 | 2.3 | 6.9 | 12 | – | – | > 50 | – | –

Structure (SMILES) | IC50 [1] [nM] | ED50 (Mus musculus [2]) [mg/kg] | IC50 [3] [nM] | ED50 (Mus musculus [4]) [mg/kg] | ED50 (Mus musculus [5]) [mg/kg] | ED50 (Mus musculus [6]) [mg/kg] | ED50 (Mus musculus [7]) [mg/kg] | ED50 (Mus musculus [8]) [mg/kg]
CC(C)(C)c1ccc(C(=O)NCCCCN2CCN(c3nsc4ccccc34)CC2)cc1.Cl | 68 | – | 520 | – | – | > 25 | – | –
Cl.O=C(NCCCCN1CCN(c2nsc3ccccc23)CC1)c1c(O)ccc(Br)c1O | 16 | 6 | 120 | – | – | 28.8 | – | –
COc1ccc(Br)c(OC)c1C(=O)NCCCCN1CCN(c2nsc3ccccc23)CC1.Cl | 12 | > 25 | 74 | – | – | – | – | –
Cl.Nc1ccc(Cl)cc1C(=O)NCCCCN1CCN(c2nsc3ccccc23)CC1 | 1.6 | < 6 | 9.4 | – | – | 25 | – | –
Cl.NNc1ccccc1C(=O)NCCCCN1CCN(c2nsc3ccccc23)CC1 | 2.4 | 10.8 | 3.8 | – | – | 40.4 | – | –
CCc1cc(Cl)c(O)c(C(=O)NCCCCN2CCN(c3nsc4ccccc34)CC2)c1OC.Cl | 6.3 | 25.5 | 23 | – | – | – | – | –
Cl.O=C(NCCCCN1CCN(c2nsc3ccccc23)CC1)c1ccc(Cl)cc1 | 5.6 | 9.4 | 15 | – | – | > 25 | – | –
Cl.O=C(NCCCCN1CCN(c2nsc3ccccc23)CC1)c1cc(Cl)cc(Cl)c1 | 1.7 | > 25 | 49 | – | – | – | – | –
CCOC(=O)Nc1ccccc1C(=O)NCCCCN1CCN(c2nsc3ccccc23)CC1.Cl | 1.4 | 1.8 | – | – | – | 32.8 | – | –
CN(CCCCN1CCN(c2nsc3ccccc23)CC1)C(=O)c1ccccc1.Cl | 3.9 | 10 | 1.4 | – | – | 22.4 | – | –
CC(=O)Nc1ccccc1C(=O)NCCCCN1CCN(c2nsc3ccccc23)CC1.Cl | 2 | 4.1 | 5.2 | – | – | 22.3 | – | –
Cl.O=C(NCCCCN1CCN(c2nsc3ccccc23)CC1)c1ccccc1[N+](=O)[O-] | 3.7 | 25 | 6.4 | – | – | – | – | –
Cl.Nc1ccc(C(=O)NCCCCN2CCN(c3nsc4ccccc34)CC2)cc1 | 150 | > 25 | 23 | – | – | – | – | –
COc1cccc(C(=O)NCCCCN2CCN(c3nsc4ccccc34)CC2)c1N.Cl | 1.6 | 2.2 | 4.1 | – | – | 20.3 | – | –
COc1ccc(N)c(C(=O)NCCCCN2CCN(c3nsc4ccccc34)CC2)c1.Cl | 1.4 | 2.1 | 10 | – | – | > 50 | – | –
Cl.Nc1cc(F)ccc1C(=O)NCCCCN1CCN(c2nsc3ccccc23)CC1 | 0.59 | 2.5 | 4.2 | – | – | 27.1 | – | –
Cl.Nc1cccc(F)c1C(=O)NCCCCN1CCN(c2nsc3ccccc23)CC1 | 1.6 | 7.8 | 4.2 | – | – | 20.8 | – | –
CCc1cc(Cl)c(OC)c(C(=O)NCCCCN2CCN(c3nsc4ccccc34)CC2)c1OC.Cl | 30 | 26 | 180 | – | – | – | – | –
COc1c(Br)ccc(O)c1C(=O)NCCCCN1CCN(c2nsc3ccccc23)CC1.Cl | 14 | 4.7 | – | – | – | > 25 | – | –
Cl.O=C(NCCCCN1CCN(c2nsc3ccccc23)CC1)c1ccccc1 | 2.1 | 1.1 | 5.2 | – | – | 21.5 | – | –
